Laboratory results from ChEMBL document CHEMBL4706557, “Synthesis and in vitro and in vivo biological evaluation of novel derivatives of flexicaulin A as antiproliferative agents” (Eur J Med Chem, 2020).
Active and inactive are the calls of the source. The rule behind the calls is not given here.

What was measured:
[1] = Toxicity in BALB/c mouse assessed as HCT at 20 mg/kg, ip administered once daily for 14 days (reference value: 49.08 +/- 1.56 %); type: organism-based; conditions: in vivo, 336 h, time 14 day
ECa-109 cell line [2] = assay: Induction of apoptosis in human EC-109 cells assessed as apoptotic rate at 3 uM after 48 hrs by Annexin V-FITC/propidium iodide staining based flow cytometry (reference value: 3.2 %); type: functional
ECa-109 cell line [3] = assay: Induction of apoptosis in human EC-109 cells assessed as apoptotic rate at 1.5 uM after 48 hrs by Annexin V-FITC/propidium iodide staining based flow cytometry (reference value: 3.2 %); type: functional
[4] = Toxicity in BALB/c mouse assessed as abnormalities in heart at 20 to 40 mg/kg, ip administered once daily for 14 days by HE staining based assay; type: organism-based; conditions: in vivo, 336 h, dose 20-40 mg/kg, time 14 day
ECa-109 cell line [5] = assay: Induction of apoptosis in human EC109 cells assessed as change in phosphorylated MKK4 expression at 3 uM incubated for 24 hrs in presence of N-acetylcysteine by Western blot analysis; type: functional, cell-based
ECa-109 cell line [6] = assay: Induction of mitochondrial depolarization in human EC-109 cells assessed as depolarized cell population at 3 uM preincubated with N-acetylcysteine for 4 hrs followed by compound addition and measured after 24 hrs by JC1 dye based flow cytometry (reference value: 4.2 %); type: functional
TE-1 = assay: Antiproliferative activity against human TE-1 cells assessed as inhibition of cell growth incubated for 72 hrs by SRB assay; type: functional, cell-based; conditions: TE-1, 72 h
[7] = Toxicity in BALB/c mouse assessed as HGB at 20 mg/kg, ip administered once daily for 14 days (reference value: 153.20 +/- 3.87 g/L); type: organism-based; conditions: in vivo, 336 h, time 14 day
ECa-109 cell line [8] = assay: Induction of apoptosis in human EC109 cells assessed as reduction in Bcl-2 expression at 3 uM incubated for 24 hrs in presence of N-acetylcysteine by Western blot analysis; type: functional, cell-based
MCF7 = assay: Antiproliferative activity against human MCF7 cells assessed as inhibition of cell growth incubated for 72 hrs by SRB assay; type: functional, cell-based; conditions: MCF7, 72 h
ECa-109 cell line [9] = assay: Antiproliferative activity against human EC109 cells assessed as survival rate preincubated with N-acetylcysteine for 4 hrs followed by compound addition and measured after 24 hrs by SRB assay; type: functional
ECa-109 cell line [10] = assay: Induction of apoptosis in human EC109 cells assessed as increase in cleaved caspase 3 expression after 24 hrs by Western blot analysis; type: functional, cell-based
HUVEC [11] = assay: Cytotoxicity against HUVEC assessed as reduction in survival rate at 0 to 8 uM by SRB assay; type: cell-based; conditions: human, TDE = time-dependent effect, dose 0-8 µM
HUVEC [12] = assay: Cytotoxicity against HUVEC assessed as reduction in survival rate after 24 to 72 hrs by SRB assay; type: cell-based; conditions: human, time 24-72 hrs
[13] = Toxicity in BALB/c mouse assessed as MCV at 40 mg/kg, ip administered once daily for 14 days (reference value: 49.90 +/- 0.37 fL); type: organism-based; conditions: in vivo, 336 h, time 14 day
ECa-109 cell line [14] = assay: Induction of apoptosis in human EC109 cells assessed as increase in intracellular ROS level at 1.5 to 3 uM incubated for 24 hrs by DCFH-DA staining based flow cytometry analysis; type: functional, cell-based; conditions: dose 1.5-3 µM
ECa-109 cell line [15] = assay: Induction of apoptosis in human EC109 cells assessed as change in phosphorylated JNK expression at 3 uM incubated for 24 hrs in presence of N-acetylcysteine by Western blot analysis; type: functional, cell-based
ECa-109 cell line [16] = assay: Induction of mitochondrial depolarization in human EC-109 cells assessed as depolarized cell population at 1.5 uM measured after 24 hrs by JC1 dye based flow cytometry (reference value: 4.2 %); type: functional
ECa-109 cell line [17] = assay: Induction of apoptosis in human EC-109 cells assessed as apoptotic rate at 1.5 uM after 24 hrs by Annexin V-FITC/propidium iodide staining based flow cytometry (reference value: 5.3 %); type: functional
ECa-109 cell line [18] = assay: Induction of apoptosis in human EC-109 cells xenografted in BALB/c mouse assessed as increase in Bax/Bcl-2 ratio in tumor tissue at 20 to 40 mg/kg, ip QD for 14 days by Western blotting analysis relative to control; type: functional, organism-based; conditions: dose 20-40 mg/kg, time 14.0 day
ECa-109 cell line [19] = assay: Induction of apoptosis in human EC-109 cells xenografted in BALB/c mouse assessed as increase in cytochrome C in tumor tissue at 40 mg/kg, ip QD for 14 days by Western blotting analysis relative to control; type: functional, organism-based; conditions: time 14.0 day
ECa-109 cell line [20] = assay: Antiproliferative activity against human EC109 cells assessed as reduction in survival rate at 0 to 8 uM by SRB assay; type: functional, cell-based; conditions: dose 0-8 µM, TDE = time-dependent effect
ECa-109 cell line [21] = assay: Induction of morphological changes in human EC109 cells assessed as decrease in number of cells; type: functional, cell-based
ECa-109 cell line [22] = assay: Induction of mitochondrial depolarization in human EC-109 cells assessed as depolarized cell population at 3 uM measured after 24 hrs by JC1 dye based flow cytometry (reference value: 4.2 %); type: functional
[23] = Toxicity in BALB/c mouse assessed as effect on glomeruli in kidney at 20 to 40 mg/kg, ip administered once daily for 14 days by HE staining based assay; type: organism-based; conditions: in vivo, 336 h, dose 20-40 mg/kg, time 14 day
ECa-109 cell line [24] = assay: Induction of apoptosis in human EC109 cells assessed as change in Bax expression at 0.75 to 3 uM after 24 hrs by Western blot analysis; type: functional, cell-based; conditions: dose 0.75-3 µM
ECa-109 = assay: Inhibition of clone formation in human EC109 cells at 0.125 to 0.5 uM after 7 days by crystal violet staining based assay; type: functional, cell-based; conditions: dose 0.125-0.5 µM, time 7.0 day
[25] = Toxicity in BALB/c mouse assessed as RDW at 20 mg/kg, ip administered once daily for 14 days (reference value: 14.18 +/- 0.26 %); type: organism-based; conditions: in vivo, 336 h, time 14 day
ECa-109 cell line [26] = assay: Induction of apoptosis in human EC109 cells assessed as increase in cleaved caspase 9 expression at 3 uM incubated for 24 hrs in presence of N-acetylcysteine by Western blot analysis; type: functional, cell-based
ECa-109 cell line [27] = assay: Induction of apoptosis in human EC-109 cells xenografted in BALB/c mouse assessed as increase in cleaved caspase 3 in tumor tissue at 40 mg/kg, ip QD for 14 days by Western blotting analysis relative to control; type: functional, organism-based; conditions: time 14.0 day
ECa-109 cell line [28] = assay: Induction of apoptosis in human EC-109 cells xenografted in nude BALB/c mouse assessed as reduction in number of cells at 20 to 40 mg/kg, ip administered once daily for 14 days by H and E staining based histopathological analysis; type: functional, organism-based; conditions: dose 20-40 mg/kg, time 14.0 day
ECa-109 cell line [29] = assay: Antitumor activity against human EC109 cells xenografted in BALB/c mouse assessed as reduction in tumor weight at 20 mg/kg, ip administered every day for 14 days; type: functional, organism-based; conditions: time 14.0 day
ECa-109 cell line [30] = assay: Antiproliferative activity against human EC109 cells assessed as reduction in survival rate after 24 to 72 hrs by SRB assay; type: functional, cell-based; conditions: time 24-72 hrs
ECa-109 cell line [31] = assay: Induction of apoptosis in human EC-109 cells xenografted in BALB/c mouse assessed as increase in cleaved caspase 9 in tumor tissue at 40 mg/kg, ip QD for 14 days by Western blotting analysis relative to control; type: functional, organism-based; conditions: time 14.0 day

IC50 (MCF7): 350 nM
SMILES: C=C1C(=O)[C@@]23[C@H](O)C[C@@H]4C(C)(C)CCC[C@@]4(COC(C)=O)[C@@H]2[C@@H](O)C[C@H]1[C@H]3OC(=O)c1ccc(CCl)cc1
Activity [1]: 46.67% | Activity (ECa-109 cell line [2]): 97% | Activity (ECa-109 cell line [3]): 93.1% | Activity [4]: Non-Toxic | Activity (ECa-109 cell line [5]): inactive | Activity (ECa-109 cell line [6]): 4% | IC50 (TE-1): 270 nM | Activity [7]: 147 g/L | Activity (ECa-109 cell line [8]): inactive | Activity (ECa-109 cell line [9]): 90% | Activity (ECa-109 cell line [10]): Dose-dependent effect | Activity (HUVEC [11]): Tde | Activity (HUVEC [12]): Dose-dependent effect | Activity [13]: 49.36 fL | Activity (ECa-109 cell line [14]): Active | Activity (ECa-109 cell line [15]): inactive | Activity (ECa-109 cell line [16]): 47.1% | Activity (ECa-109 cell line [17]): 28.2% | Activity (ECa-109 cell line [18]): Active | Activity (ECa-109 cell line [19]): Active | inhibition (ECa-109 cell line [20]): Tde | Activity (ECa-109 cell line [21]): Active | Activity (ECa-109 cell line [22]): 70.7% | Activity [23]: Non-Toxic | Activity (ECa-109 cell line [24]): inactive | inhibition (ECa-109): Active | Activity [25]: 14.32% | Activity (ECa-109 cell line [26]): inactive | Activity (ECa-109 cell line [27]): Active | Activity (ECa-109 cell line [28]): Active | inhibition (ECa-109 cell line [29]): Active | inhibition (ECa-109 cell line [30]): Dose-dependent effect | Activity (ECa-109 cell line [31]): Active
